Laboratory results reported in ChEMBL document CHEMBL1124718, “Synthesis and structure-activity relationship of C5-substituted analogues of (+-)-10,11-dihydro-5H-dibenzo[a,d]cyclohepten-5,10-imine [(+-)-desmethyl-MK801]: ligands for the NMDA receptor-coupled phencyclidine binding site” (J Med Chem, 1990).
pKi: −log10 of the molar value.

Target: Glutamate receptor ionotropic, NMDA 1 (Rattus norvegicus, UniProt P35439)
Assay: Ability to displace [3H]TCP from high affinity PCP N-methyl-D-aspartate glutamate receptor in rat brain homogenates in vitro was determined
Format: tissue-based

SMILES | pKi
c1ccc2c(c1)CC1NC2c2ccccc21 (configuration not stated) | 6.92
IC12NC(Cc3ccccc31)c1ccccc12 (configuration not stated) | 6.37
BrCC12NC(Cc3ccccc31)c1ccccc12 (configuration not stated) | 7.48
COCC12NC(Cc3ccccc31)c1ccccc12 (configuration not stated) | 6.52
NCCC12NC(Cc3ccccc31)c1ccccc12 (configuration not stated) | 7.70
ClCC12NC(Cc3ccccc31)c1ccccc12 (configuration not stated) | 7.92
NC(=O)C12NC(Cc3ccccc31)c1ccccc12 (configuration not stated) | 4.95
CCCC12NC(Cc3ccccc31)c1ccccc12 (configuration not stated) | 5.96
NCC12NC(Cc3ccccc31)c1ccccc12 (configuration not stated) | 6.93
CCCCCCC12NC(Cc3ccccc31)c1ccccc12 (configuration not stated) | 6.01
N#CCC12NC(Cc3ccccc31)c1ccccc12 (configuration not stated) | 6.01
CCC12NC(Cc3ccccc31)c1ccccc12 (configuration not stated) | 7.92
O=C(O)C12NC(Cc3ccccc31)c1ccccc12 (configuration not stated) | 4.49
OCC12NC(Cc3ccccc31)c1ccccc12 (configuration not stated) | 7.40
c1ccc(COCC23NC(Cc4ccccc42)c2ccccc23)cc1 (configuration not stated) | 5.00
C=CCC12NC(Cc3ccccc31)c1ccccc12 (configuration not stated) | 7.15
CCCCCCCCCCC12NC(Cc3ccccc31)c1ccccc12 (configuration not stated) | 4.67
